# US8871783B2, “Substituted 2-aza-bicyclo[2.2.1]heptane-3-carboxylic acid (cyano-methyl)-amides inhibitors of cathepsin C” (Boehringer Ingelheim International GmBh, priority 2013, dated 2014)
# Target: recombinant human DPPI (Homo sapiens (Human), UniProt P53634)
# Assay: Inhibition of Human DPPI (Cathepsin C)
# Type: biochemical
# Conditions: substrate Gly-Arg-AMC 50 μM, MES buffer pH 6.0, fluorescence
# Excerpt: Inhibition of Human DPPI (Cathepsin C)
# Materials: Microtiterplates (Optiplate-384 F) were purchased from PerkinElmer (Prod. No. 6007270). The substrate Gly-Arg-AMC was from Biotrend (Prod.-No. 808756 Custom peptide). Bovine serum albumin (BSA; Prod. No. A3059) and Dithiothreitol (DTT; Prod. No D0632) were from Sigma. TagZyme buffer was from Riedel-de-Haen (Prod.-No. 04269), NaCl was from Merck (Prod.-No. 1.06404.1000) and morpholinoethane sulfonic acid (MES), was from Serva (Prod.-No. 29834). The DPP1 inhibitor Gly-Phe-DMK was purchased from MP Biomedicals (Prod.-No. 03DK00625). The recombinant human DPPI was purchased from Prozymex. All other materials were of highest grade commercially available.
# The following buffers were used: MES buffer: 25 mM MES, 50 mM NaCl, 5 mM DTT, adjusted to pH 6.0, containing 0.1% BSA; TAGZyme Buffer: 20 mM NaH2PO4, 150 mM NaCl adjusted to pH 6.0 with HCl
# Assay conditions: The recombinant human DPPI was diluted in TAGZyme buffer to 1 U/ml (38.1 μg/ml, respectively), and then activated by mixing in a 1:2 ratio with a Cysteamine aqueous solution (2 mM) and incubating for 5 min at room temperature.
# Five uL test compound (final concentration 0.1 nM to 100 μM) in aqua bidest (containing 4% DMSO, final DMSO concentration 1%) were mixed with 10 μL of DPPI in MES buffer (final concentration 0.0125 ng/μL) and incubated for 10 min. Then, 5 μL of substrate in MES buffer (final concentration 50 μM) were added. The microtiter plates were then incubated at room temperature for 30 min. Then, the reaction was stopped by adding 10 μL of Gly-Phe-DMK in MES-buffer (final concentration 1 μM). The fluorescence in the wells was determined using a Molecular Devices SpectraMax M5 Fluorescence Reader (Ex 360 nm, Em 460 nm) or an Envision Fluorescence Reader (Ex 355 nm, Em 460 nm).
# Each assay microtiter plate contained wells with vehicle controls (1% DMSO in bidest+0.075% BSA) as reference for non-inhibited enzyme activity (100% Ctl; high values) and wells with inhibitor (Gly-Phe-DMK, in bidest+1% DMSO+0.075% BSA, final concentration 1 μM) as controls for background fluorescence (0% Ctl; low values).
# The analysis of the data was performed by calculating the percentage of fluorescence in the presence of test compound in comparison to the fluorescence of the vehicle control after subtracting the background fluorescence using the following formula: (RFU(sample)−RFU(background))*100/(RFU(control)−RFU(background)) […]
# Sequence of recombinant human DPPI (P53634 231-394): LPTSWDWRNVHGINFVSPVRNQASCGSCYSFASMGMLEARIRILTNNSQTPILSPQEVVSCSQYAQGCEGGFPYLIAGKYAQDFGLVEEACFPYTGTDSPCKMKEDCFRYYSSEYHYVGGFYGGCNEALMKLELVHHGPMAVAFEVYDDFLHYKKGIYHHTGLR
# Sequence of recombinant human DPPI (P53634 395-463): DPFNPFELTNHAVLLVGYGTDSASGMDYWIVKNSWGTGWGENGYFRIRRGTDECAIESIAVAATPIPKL
# Sequence of recombinant human DPPI (P53634 25-134): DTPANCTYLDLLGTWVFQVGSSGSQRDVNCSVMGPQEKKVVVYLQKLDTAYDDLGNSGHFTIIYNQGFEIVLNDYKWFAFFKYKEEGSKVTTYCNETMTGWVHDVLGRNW
row,Ki [µM],SMILES
1,0.0173,CS(=O)(=O)c1ccc(-c2ccc(C[C@@H](C#N)NC(=O)[C@H]3N[C@@H]4CC[C@H]3C4)s2)cc1 [Example 2]
2,0.0032,CN1C(=O)Cc2ccc(-c3ccc(C[C@@H](C#N)NC(=O)[C@H]4N[C@@H]5CC[C@H]4C5)s3)cc21 [Example 3]
3,0.0029,CN1CCN(S(=O)(=O)c2ccc(-c3ccc(C[C@@H](C#N)NC(=O)[C@H]4N[C@@H]5CC[C@H]4C5)s3)cc2)CC1 [Example 23]
4,0.0167,CS(=O)(=O)c1cccc(-c2ccc(C[C@@H](C#N)NC(=O)[C@H]3N[C@@H]4CC[C@H]3C4)s2)c1 [Example 26]
5,0.0042,N#C[C@H](Cc1ccc(-c2ccc3c(c2)NC(=O)C3)s1)NC(=O)[C@H]1N[C@@H]2CC[C@H]1C2 [Example 17]
6,0.004,CC1(C)OC(=O)c2ccc(-c3ccc(C[C@@H](C#N)NC(=O)[C@H]4N[C@@H]5CC[C@H]4C5)s3)cc21 [Example 25]
7,0.0021,CN1C(=O)C(=O)c2ccc(-c3ccc(C[C@@H](C#N)NC(=O)[C@H]4N[C@@H]5CC[C@H]4C5)s3)cc21 [Example 4]
8,0.0219,CC1(C)OC(=O)c2cc(-c3ccc(C[C@@H](C#N)NC(=O)[C@H]4N[C@@H]5CC[C@H]4C5)s3)ccc21 [Example 24]
9,0.0171,CCn1cc(-c2ccc(C[C@@H](C#N)NC(=O)[C@H]3N[C@@H]4CC[C@H]3C4)s2)cn1 [Example 16]
10,0.0134,CC(=O)c1ccc(-c2ccc(C[C@@H](C#N)NC(=O)[C@H]3N[C@@H]4CC[C@H]3C4)s2)s1 [Example 14]
11,0.0137,N#Cc1ccc(-c2ccc(C[C@@H](C#N)NC(=O)[C@H]3N[C@@H]4CC[C@H]3C4)s2)cc1F [Example 1]
12,0.0728,N#CC(Cc1cc2cc(-c3ccccc3)ccc2s1)NC(=O)[C@H]1N[C@@H]2CC[C@H]1C2 (stereo partly drawn) [Example 11]

# Continued, compound first:
row,SMILES,Ki [µM]
1,N#C[C@H](Cc1ccc(-c2cnn(CC3CCOCC3)c2)s1)NC(=O)[C@H]1N[C@@H]2CC[C@H]1C2 [Example 18],0.027
2,N#CC(Cc1cc2cc(Br)ccc2s1)NC(=O)[C@H]1N[C@@H]2CC[C@H]1C2 (stereo partly drawn) [Example 10],0.0358
3,N#Cc1ccc(-c2ccc3oc(CC(C#N)NC(=O)[C@H]4N[C@@H]5CC[C@H]4C5)cc3c2)cc1F (stereo partly drawn) [Example 7],0.0393
4,CN1C(=O)Cc2ccc(-c3cc(F)c(CC(C#N)NC(=O)[C@H]4N[C@@H]5CC[C@H]4C5)s3)cc21 (stereo partly drawn) [Example 22],0.0022
5,CN1C(=O)Cc2ccc(-c3ccc4oc(CC(C#N)NC(=O)[C@H]5N[C@@H]6CC[C@H]5C6)cc4c3)cc21 (stereo partly drawn) [Example 8],0.104
6,N#CC(Cc1cc2cc(Br)ccc2o1)NC(=O)[C@H]1N[C@@H]2CC[C@H]1C2 (stereo partly drawn) [Example 6],0.0641
7,CN1C(=O)Cc2ccc(-c3ccc(C[C@@H](C#N)NC(=O)[C@H]4N[C@@H]5CC[C@H]4C5)o3)cc21 [Example 5],0.176
8,CN1CCC(c2ccc(C[C@@H](C#N)NC(=O)[C@H]3N[C@@H]4CC[C@H]3C4)s2)CC1 [Example 20],0.0379
9,N#CC(Cc1cc2cc(-c3ccccc3)ccc2o1)NC(=O)[C@H]1N[C@@H]2CC[C@H]1C2 (stereo partly drawn) [Example 9],0.062
10,CN1C(=O)Cc2ccc(-c3cnc(CC(C#N)NC(=O)[C@H]4N[C@@H]5CC[C@H]4C5)s3)cc21 (stereo partly drawn) [Example 12],0.0149
11,CN1C(=O)Cc2ccc(-c3csc(CC(C#N)NC(=O)[C@H]4N[C@@H]5CC[C@H]4C5)c3)cc21 (stereo partly drawn) [Example 15],0.0419
12,CN1C(=O)Cc2ccc(-c3csc(CC(C#N)NC(=O)[C@H]4N[C@@H]5CC[C@H]4C5)c3F)cc21 (stereo partly drawn) [Example 13],0.0617
